From US11414416B1, “Compounds and uses thereof” (Foghorn Therapeutics Inc., priority 2019, dated 2022) come the findings set out here.

SMILES strings stand for the structures. A value given as a limit tells only on which side of the number the result lay.

The first assay deals with Nanoluciferase-BRD9 fusion protein (Homo sapiens (Human), UniProt Q9H8M2). In words: SYO1 BRD9 NanoLuc degradation assay. It is filed as cell-based. The following applies: Table 5A; SYO-1 cells expressing 3×FLAG-NLuc-BRD9, 6 hours; read-out: SYO1 BRD9-NanoLuc degradation IC50. In outline: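 Degradation was read as loss of nanoluciferase signal (Nano-Glo) after 6 h compound exposure in a stable SYO-1 line carrying 3×FLAG-NLuc-BRD9 (8000 cells/well). Normalised between DMSO (high) and a 1 μM known BRD9 degrader (low).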
Chain of Nanoluciferase-BRD9 fusion protein (Q9H8M2 whole entry, the tested form may be a part): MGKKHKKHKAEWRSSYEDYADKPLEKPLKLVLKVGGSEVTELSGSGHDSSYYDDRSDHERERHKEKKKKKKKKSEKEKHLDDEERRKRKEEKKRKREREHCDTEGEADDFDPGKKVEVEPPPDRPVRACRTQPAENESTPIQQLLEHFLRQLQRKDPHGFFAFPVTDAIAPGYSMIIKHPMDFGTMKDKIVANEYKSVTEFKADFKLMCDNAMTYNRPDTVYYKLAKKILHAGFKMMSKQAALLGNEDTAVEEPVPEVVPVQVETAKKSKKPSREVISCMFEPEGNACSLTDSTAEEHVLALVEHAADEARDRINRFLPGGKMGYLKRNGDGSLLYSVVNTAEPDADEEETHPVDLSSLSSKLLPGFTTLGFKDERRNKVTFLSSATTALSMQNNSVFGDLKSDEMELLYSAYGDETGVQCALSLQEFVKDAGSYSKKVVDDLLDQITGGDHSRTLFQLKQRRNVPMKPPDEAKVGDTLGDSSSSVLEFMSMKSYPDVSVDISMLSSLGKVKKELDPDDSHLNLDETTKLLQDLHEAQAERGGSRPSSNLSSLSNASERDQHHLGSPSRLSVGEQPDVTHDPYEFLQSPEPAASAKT
On to `COc1cc(-c2cn(C)c(=O)c3cnccc23)cc(OC)c1CN1CC[C@H]1C(=O)NCCCCCCCCNc1cccc2c1C(=O)N([C@H]1CCC(=O)NC1=O)C2=O` [Compound D19, (2S)-1-((2,6-dimethoxy-4-(2-methyl-1-oxo-2,7-naphthyridin-4-yl)phenyl)methyl)-N-(8-((2-((S)-2,6-dioxopiperidin-3-yl)-1,3-dioxoisoindol-4-yl)amino)octyl) azetidine-2-carboxamide], for which the DC50 is below 0.01 µM.

Turning to `COc1cc(-c2cn(C)c(=O)c3cnccc23)cc(OC)c1CN1CC(S(=O)(=O)NCCN2CCN(c3ccc4c(c3)C(=O)N(C3CCC(=O)NC3=O)C4=O)CC2)C1` (stereo not drawn) [Compound D24, 1-[[2,6-dimethoxy-4-(2-methyl-1-oxo-2,7-naphthyridin-4-yl)phenyl]methyl]-N-(2-[4-[2-(2,6-dioxopiperidin-3-yl)-1,3-dioxoisoindol-5-yl]piperazin-1-yl]ethyl)azetidine-3-sulfonamide formic acid], the DC50 is 0.01 to 0.1 µM.

In the case of `COc1cc(-c2cn(C)c(=O)c3cnccc23)cc(OC)c1CN1CC2(C1)CN(C(=O)C#Cc1ccc3c(c1)C(=O)N(C1CCC(=O)NC1=O)C3=O)C2` (stereo not drawn) [Compound D81], the DC50 was below 0.01 µM. Regarding `COc1cc(-c2cn(C)c(=O)c3cnccc23)cc(OC)c1CN1CC(C(=O)N(C)Cc2cccc3c2C(=O)N(C2CCC(=O)NC2=O)C3=O)C1` (stereo not drawn) [Compound D29, 1-(2,6-dimethoxy-4-(2-methyl-1-oxo-1,2-dihydro-2,7-naphthyridin-4-yl)benzyl)-N-((2-(2,6-dioxopiperidin-3-yl)-1,3-dioxoisoindolin-4-yl)methyl)-N-methylazetidine-3-carboxamide], the DC50 is 0.01 to 0.1 µM. As to `COc1cc(-c2cn(C)c(=O)c3cnccc23)cc(OC)c1CN1CCC2(CC1)CN(CCCCCOc1ccc3c(c1)C(=O)N(C1CCC(=O)NC1=O)C3=O)CCO2` (stereo not drawn) [Compound D47, 5-[[5-(9-[[2,6-dimethoxy-4-(2-methyl-1-oxo-2,7-naphthyridin-4-yl)phenyl]methyl]-1-oxa-4,9-diazaspiro[5.5]undecan-4-yl)pentyl]oxy]-2-(2,6-dioxopiperidin-3-yl)isoindole-1,3-dione formic acid], the DC50 is below 0.01 µM.

The same assay, now with this note: Table 5B; SYO-1 cells expressing 3×FLAG-NLuc-BRD9, 6 hours; read-out: SYO1 BRD9-NanoLuc degradation IC50.
Take `COc1cc(-c2cn(C)c(=O)c3cnccc23)cc(OC)c1CN(C)CCCCN1CCCC2(CC(Oc3ccc4c(c3)C(=O)N([C@@H]3CCC(=O)NC3=O)C4=O)C2)C1` (stereo partly drawn) [Compound D244]: the DC50 was below 0.01 µM.

Consider `COc1cc(-c2cn(C)c(=O)c3cnccc23)cc(OC)c1CN1CCC2C(C1)CN2C(=O)CCC#Cc1ccc2c(c1)C(=O)N(C1CCC(=O)NC1=O)C2=O` (stereo not drawn) [Compound D243], for which the DC50 is below 0.01 µM.

Turning to `COc1cc(-c2cn(C)c(=O)c3cnccc23)cc(OC)c1CN1CC2(CCN(CCCC#Cc3ccc4c(c3)C(=O)N(C3CCC(=O)NC3=O)C4=O)CC2)C1` (stereo not drawn) [Compound D212], the DC50 lay in the range of 0.01 to 0.1 µM.

As to `COc1cc(-c2cn(C)c(=O)c3cnccc23)cc(OC)c1CN1CC2(CCN(C(=O)C#Cc3ccc4c(c3)C(=O)N(C3CCC(=O)NC3=O)C4=O)CC2)C1` (stereo not drawn) [Compound D198], the DC50 was below 0.01 µM. Same read-out and setting: the result for `COc1cc(-c2cn(C)c(=O)c3cnccc23)cc(OC)c1CN1CCC2(CC1)CCN(C(=O)CC#Cc1ccc3c(c1)C(=O)N(C1CCC(=O)NC1=O)C3=O)C2` (stereo not drawn) [Compound D313] reads below 0.01 µM; that for `COc1cc(-c2cc(C)c(=O)n(C)c2)cc(OC)c1CN1CCC2CN(c3ccc4c(c3)C(=O)N(C3CCC(=O)NC3=O)C4=O)C21` (stereo not drawn) [Compound D339], below 0.01 µM; that for `COc1cc(-c2cn(C)c(=O)c3cnncc23)cc(OC)c1CN1CCC(CN2CCC3(CC2)CC(Oc2ccc4c(c2)C(=O)N(C2CCC(=O)NC2=O)C4)C3)CC1` (stereo not drawn) [Compound D368], below 0.01 µM. For the compound `COc1cc(-c2cn(C)c(=O)c3cnccc23)cc(OC)c1CN(C)C(=O)CCCCN1CCC2(CC1)CC(Oc1ccc3c(c1)C(=O)N(C1CCC(=O)NC1=O)C3=O)C2` (stereo not drawn) [Compound D208], the DC50 was below 0.01 µM.

Consider `COc1cc(-c2cc(C)c(=O)n(C)c2C)c(OC)cc1CN1CC(CN2CCC3(CC2)CN(c2ccc4c(c2)C(=O)N(C2CCC(=O)NC2=O)C4=O)C3)C1` (stereo not drawn) [Compound D359], for which the DC50 was below 0.01 µM. For `COc1cc(-c2cc(C)c(=O)n(C)c2)cc(OC)c1CN1CC(C#Cc2ccc3c(c2)C(=O)N(C2CCC(=O)NC2=O)C3=O)C1` (stereo not drawn) [Compound D335], the DC50 was below 0.01 µM. For the compound `COc1cc(-c2cc(C)c(=O)n(C)n2)cc(OC)c1CN1CCC2(CC1)CN(c1ccc3c(c1)CN(C1CCC(=O)NC1=O)C3=O)C2` (stereo not drawn) [Compound D357], the DC50 is below 0.01 µM. `COc1cc(-c2cn(C)c(=O)c3cnccc23)cc(OC)c1CN1CC(CC(=O)N2CCCC3(CC(Oc4ccc5c(c4)C(=O)N([C@@H]4CCC(=O)NC4=O)C5=O)C3)C2)C1` (stereo partly drawn) [Compound D264]: the DC50 was in the range of 0.01 to 0.1 µM.

Turning to `COc1cc(-c2cn(C)c(=O)c3cnccc23)cc(OC)c1CN(C)CCCn1cc(CCOc2ccc3c(c2)C(=O)N(C2CCC(=O)NC2=O)C3=O)nn1` (stereo not drawn) [Compound D283], the DC50 was 0.1 to 1 µM. For the compound `COc1cc(-c2cn(C)c(=O)c3cncn23)cc(OC)c1CN1CC(CN2CCC3(CC2)CN(c2ccc4c(c2)C(=O)N(C2CCC(=O)NC2=O)C4)C3)C1` (stereo not drawn) [Compound D361], the DC50 is below 0.01 µM. Regarding `COc1cc(-c2cn(C)c(=O)c3ccnnc23)cc(OC)c1CN1CCC(CN2CCC3(CC2)CC(Oc2ccc4c(c2)CN(C2CCC(=O)NC2=O)C4=O)C3)CC1` (stereo not drawn) [Compound D366], the DC50 was below 0.01 µM. Regarding `COc1cc(-c2cn(C)c(=O)c3cnccc23)cc(OC)c1CN1CC2(C1)CN(C(=O)CCC#Cc1ccc3c(c1)C(=O)N(C1CCC(=O)NC1=O)C3=O)C2` (stereo not drawn) [Compound D200], the DC50 is 0.01 to 0.1 µM.

As to `COc1cc(-c2cn(C)c(=O)c3cnccc23)cc(OC)c1CN1CCC(n2cc([C@H](C)Oc3ccc4c(c3)C(=O)N(C3CCC(=O)NC3=O)C4=O)nn2)CC1` (stereo partly drawn) [Compound D320], the DC50 was below 0.01 µM.

As for `COc1cc(-c2cn(C)c(=O)c3cnccc23)cc(OC)c1CN(C)CC(=O)NCCCCOc1ccc(-c2ccc3c(c2)C(=O)C(C2CCC(=O)NC2=O)C3=O)cc1` (stereo not drawn) [DD7], the DC50 is below 0.01 µM.

For `COc1cc(-c2cn(C)c(=O)c3cnccc23)cc(OC)c1CN(C)CCCn1cc(COc2ccc3c(c2)C(=O)N(C2CCC(=O)NC2=O)C3=O)nn1` (stereo not drawn) [Compound D282], the DC50 lay within 0.1 to 1 µM.

With `COc1cc(-c2cn(C)c(=O)c3cnccc23)cc(OC)c1CN1CCC(CN2CCC3(CC2)CC(Oc2ccc4c(c2)C(=O)N(C2CCC(=O)NC2=O)C4=O)C3)CC1` (stereo not drawn) [Compound D304], the DC50 is below 0.01 µM. On to `COc1cc(-c2cn(C)c(=O)c3cnccc23)cc(OC)c1CN1CC(CC(=O)N2CCC3C2CN3c2ccc3c(c2)C(=O)N(C2CCC(=O)NC2=O)C3=O)C1` (stereo not drawn) [Compound D210], for which the DC50 fell in the range of 0.01 to 0.1 µM. Consider `C=CCn1cc(-c2cc(OC)c(CN3CC(CN4CCC5(CC4)CN(c4ccc6c(c4)C(=O)N(C4CCC(=O)NC4=O)C6=O)C5)C3)c(OC)c2)cc(C)c1=O` (stereo not drawn) [Compound D348], for which the DC50 is below 0.01 µM.

`COc1cc(-c2cn(C)c(=O)c(C)c2C)cc(OC)c1CN1CC(CN2CCC3(CC2)CN(c2ccc4c(c2)C(=O)N(C2CCC(=O)NC2=O)C4=O)C3)C1` (stereo not drawn) [Compound D345]: the DC50 was below 0.01 µM.

Turning to `COc1cc(-c2cn(C)c(=O)c3cnccc23)cc(OC)c1CN1CCC(n2cc(COCCOc3ccc4c(c3)C(=O)N(C3CCC(=O)NC3=O)C4=O)nn2)CC1` (stereo not drawn) [Compound D290], the DC50 was below 0.01 µM. Same read-out and setting: with `COc1cc(-c2cn(C)c(=O)c3cnccc23)cc(OC)c1CN1CC2(CN(CC#Cc3ccc4c(c3)C(=O)N(C3CCC(=O)NC3=O)C4=O)C2)C1` (stereo not drawn) [Compound D309] the figure was 0.01 to 0.1 µM; with `COc1cc(-c2cn(C)c(=O)c3cnccc23)cc(OC)c1CN1CCC2(CCC(C(=O)CCC#Cc3ccc4c(c3)C(=O)N(C3CCC(=O)NC3=O)C4=O)C2)CC1` (stereo not drawn) [Compound D220], below 0.01 µM.

Staying with this assay, now noted: Table 5C; SYO-1 cells expressing 3×FLAG-NLuc-BRD9, 6 hours; read-out: SYO1 BRD9-NanoLuc degradation IC50.
For `COc1cc(-c2nc(N)nc3[nH]cnc23)cc(OC)c1CN1CCC2(CC1)CN(c1ccc3c(c1)C(=O)N(C1CCC(=O)NC1=O)C3)C2` (stereo not drawn) [DD15], the DC50 was 0.01 to 0.1 µM.

Regarding `COc1cc(-c2cn(C)c(=O)c3cnccc23)cc(OC)c1CN1CCC(c2cnn(C3CCC(=O)NC3=O)c2)CC1` (stereo not drawn) [Compound D393], the DC50 fell in the range of 0.01 to 0.1 µM. As for `COc1cc(-c2cn(C)c(=O)c3cnccc23)cc(OC)c1CN1CCC2(CC1)CN(c1ccnc(C(=O)NC3CCC(=O)NC3=O)c1)C2` (stereo not drawn) [Compound D471], the DC50 was below 0.01 µM. As to `COc1cc(-c2cn(C)c(=O)c3cnccc23)cc(OC)c1CN1CC(Oc2ccc3c(c2)CN(C2CCC(=O)NC2=O)C3=O)C1` (stereo not drawn) [Compound D375], the DC50 was below 0.01 µM.

As to `COc1cc(-c2cn(C)c(=O)c3cn(C)nc23)cc(OC)c1CN1CC(CN2CCC3(CC2)CN(c2ccc4c(c2)C(=O)N(C2CCC(=O)NC2=O)C4)C3)C1` (stereo not drawn) [Compound D402], the DC50 is below 0.01 µM. In the case of `COc1cc(-c2cn(C)c(=O)c3cnccc23)cc(OC)c1CN1CCC2(CC1)CN(c1cncc(C(=O)NC3CCC(=O)NC3=O)n1)C2` (stereo not drawn) [Compound D473], the DC50 is above 1 µM. On to `COc1cc(-c2cn(C)c(=O)c3cnccc23)cc(OC)c1CN1CCC2(CC1)CN(c1ccc3c(c1)C(=O)N(C1CC(=O)NC1=O)C3)C2` (stereo not drawn) [Compound D382], for which the DC50 is below 0.01 µM. On the same count and under the same terms, with `COc1cc(-c2cn(C)c(=O)c3cnccc23)cc(OC)c1CN1CCC(c2cc(=O)n(C3CCC(=O)NC3=O)c(C)n2)CC1` (stereo not drawn) [Compound D394] the figure was above 1 µM; with `COc1cc(-c2cn(C)c(=O)c3cnccc23)cc(OC)c1CN1CCC2(CC1)CN(c1ccc3c(c1)C(=O)N(C1CCC(=O)NC1)C3)C2` (stereo not drawn) [Compound D390], above 1 µM; with `COc1cccc(OC)c1CN1CCC2(CC1)CN(c1ccc3c(c1)C(=O)N(C1CCC(=O)NC1=O)C3)C2` (stereo not drawn) [DD12], above 1 µM. In the case of `COc1cc(-c2cc(C)c(=O)n(C)c2)cc(OC)c1CN1CCN(c2ccc3c(c2)C(=O)N(C2CCC(=O)NC2=O)C3)CC1` (stereo not drawn) [Compound D452], the DC50 was below 0.01 µM.
